In PubChem BioAssay AID248 (DTP/NCI, 2004):
Where “and” joins values, the source holds several entries; their conditions need not be identical. Equal entries are not always repeated. Inconclusive results and toxic doses are left out. Rule as the data show it: active = T/C of 150% or more; inactive = T/C below 125%.

System: L1210 leukemia ip in BDF1 mice, survival T/C
Assay: NCI In Vivo Anticancer Drug Screen. Data for tumor model L1210 Leukemia (intraperitoneal) in B6D2F1 (BDF1) mice
Details: endpoint: mean survival time, higher = longer survival
Method in brief: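 Antitumor effect is assessed in tumor-bearing animals. Survival in the compound arm is compared with a vehicle-dosed control arm and expressed as their quotient.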

[1] = dose: 100.0 mg/kg/injection, schedule: Q01DX009 (ip), vehicle: saline with Tween-80
[2] = dose: 200.0 mg/kg/injection, schedule: Q01DX009 (ip), vehicle: saline with Tween-80
[3] = dose: 400.0 mg/kg/injection, schedule: Q01DX009 (ip), vehicle: saline with Tween-80
[4] = dose: 100.0 mg/kg/injection, schedule: Q01DX009 (ip), vehicle: saline
[5] = dose: 100.0 mg/kg/injection, schedule: Q04DX003 (ip), vehicle: saline
[6] = dose: 200.0 mg/kg/injection, schedule: Q01DX009 (ip), vehicle: saline
[7] = dose: 200.0 mg/kg/injection, schedule: Q04DX003 (ip), vehicle: saline
[8] = dose: 400.0 mg/kg/injection, schedule: Q01DX009 (ip), vehicle: saline
[9] = dose: 400.0 mg/kg/injection, schedule: Q04DX003 (ip), vehicle: saline
[10] = dose: 50.0 mg/kg/injection, schedule: Q01DX009 (ip), vehicle: saline
[11] = dose: 100.0 mg/kg/injection, schedule: Q04DX002 (ip), vehicle: saline with Tween-80
[12] = dose: 200.0 mg/kg/injection, schedule: Q04DX002 (ip), vehicle: saline with Tween-80
[13] = dose: 400.0 mg/kg/injection, schedule: Q04DX002 (ip), vehicle: saline with Tween-80
[14] = dose: 100.0 mg/kg/injection, schedule: Q01DX009 (ip), vehicle: Klucel (hydroxypropylcellulose) (HPC)
[15] = dose: 200.0 mg/kg/injection, schedule: Q01DX009 (ip), vehicle: Klucel (hydroxypropylcellulose) (HPC)
[16] = dose: 100.0 mg/kg/injection, schedule: Q01DX001 (ip), vehicle: Klucel (hydroxypropylcellulose) (HPC)
[17] = dose: 100.0 mg/kg/injection, schedule: Q04DX003 (ip), vehicle: Klucel (hydroxypropylcellulose) (HPC)
[18] = dose: 200.0 mg/kg/injection, schedule: Q04DX003 (ip), vehicle: Klucel (hydroxypropylcellulose) (HPC)

Measured: T/C

Clc1nc2nsnc2nc1Cl
inactive: dose: 25.0 mg/kg/injection, schedule: Q01DX009 (ip), vehicle: saline with Tween-80 91 % of control | dose: 50.0 mg/kg/injection, schedule: Q01DX009 (ip), vehicle: saline with Tween-80 110 % of control | [1] 96 % of control | [2] 104 % of control | [3] 94 % of control

CCCC(=O)Nc1ccc(NS(C)(=O)=O)cc1OC
inactive: [4] 103 % of control | [5] 102 % of control | [6] 100 % of control | [7] 102 % of control | [8] 102 % of control | [9] 100 % of control

CCCCNC(=O)Nc1cc(C)c(C)cc1C
inactive: dose: 25.0 mg/kg/injection, schedule: Q01DX009 (ip), vehicle: gum acacia 106 % of control | dose: 50.0 mg/kg/injection, schedule: Q01DX009 (ip), vehicle: gum acacia 96 % of control | dose: 100.0 mg/kg/injection, schedule: Q01DX009 (ip), vehicle: gum acacia 88 % of control | dose: 100.0 mg/kg/injection, schedule: Q04DX003 (ip), vehicle: gum acacia 91 % of control | dose: 200.0 mg/kg/injection, schedule: Q01DX009 (ip), vehicle: gum acacia 92 % of control | dose: 200.0 mg/kg/injection, schedule: Q04DX003 (ip), vehicle: gum acacia 96 % of control | dose: 400.0 mg/kg/injection, schedule: Q04DX003 (ip), vehicle: gum acacia 87 % of control

CCN(CC)Cc1ccccc1
inactive: dose: 75.0 mg/kg/injection, schedule: Q01DX001 (ip), vehicle: other 95 % of control

Cn1cc(C=O)c2nccnc21
inactive: [10] 98 % of control | [4] 95 % of control | [5] 100 % of control | [6] 98 % of control | [7] 100 % of control

CCCCCCCCC1SC(=S)NC1CCCCCCCC(=O)OC (stereo not given)
inactive: [11] 96 % of control | [12] 100 % of control | [13] 100 % of control

Cc1cccc(C)c1/C=C/S(=O)(=O)c1ccccc1
inactive: dose: 100.0 mg/kg/injection, schedule: Q01DX001 (ip), vehicle: acetone 98 % of control | [4] 94 % of control | dose: 100.0 mg/kg/injection, schedule: Q04DX003 (ip), vehicle: acetone 109 % of control | dose: 200.0 mg/kg/injection, schedule: Q01DX001 (ip), vehicle: acetone 98 % of control | [6] 103 % of control | dose: 200.0 mg/kg/injection, schedule: Q04DX003 (ip), vehicle: acetone 103 % of control | dose: 400.0 mg/kg/injection, schedule: Q01DX001 (ip), vehicle: acetone 106 % of control | [8] 94 % of control | dose: 400.0 mg/kg/injection, schedule: Q04DX003 (ip), vehicle: acetone 101 % of control

O=C1OC(C(O)C(O)CO)C(O)C1O (stereo not given)
inactive: [10] 92 % of control | [4] 92 % of control | [5] 92 % of control | [6] 97 % of control | [7] 94 % of control | [9] 100 % of control

Cc1ccc(C)c(NC(=O)NCCN(C)c2ccccc2)c1
inactive: dose: 100.0 mg/kg/injection, schedule: Q01DX001 (ip), vehicle: saline with Tween-80 96 % of control | [1] 87 % of control | [11] 89 % of control and 91 % of control | dose: 200.0 mg/kg/injection, schedule: Q01DX001 (ip), vehicle: saline with Tween-80 93 % of control | [2] 89 % of control | [12] 89 % of control and 91 % of control | dose: 400.0 mg/kg/injection, schedule: Q01DX001 (ip), vehicle: saline with Tween-80 92 % of control | [3] 101 % of control | [13] 89 % of control and 91 % of control

O=C(O)CSc1ccc(NC(=O)Nc2ccccc2F)cc1
inactive: dose: 100.0 mg/kg/injection, schedule: Q01DX001 (ip), vehicle: saline 90 % of control | [1] 92 % of control | [5] 100 % of control | dose: 200.0 mg/kg/injection, schedule: Q01DX001 (ip), vehicle: saline 88 % of control | [2] 89 % of control | [7] 94 % of control | dose: 400.0 mg/kg/injection, schedule: Q01DX001 (ip), vehicle: saline 92 % of control | [3] 86 % of control | [9] 92 % of control

CN(C)c1ccc(C(=O)O)cc1
inactive: dose: 100.0 mg/kg/injection, schedule: Q01DX009 (ip), vehicle: other 93 % of control | dose: 100.0 mg/kg/injection, schedule: Q04DX003 (ip), vehicle: other 104 % of control | dose: 200.0 mg/kg/injection, schedule: Q01DX009 (ip), vehicle: other 87 % of control | dose: 200.0 mg/kg/injection, schedule: Q04DX003 (ip), vehicle: other 107 % of control | dose: 400.0 mg/kg/injection, schedule: Q01DX009 (ip), vehicle: other 96 % of control | dose: 400.0 mg/kg/injection, schedule: Q04DX003 (ip), vehicle: other 95 % of control

O=C(O)/C(=C\c1ccccc1[N+](=O)[O-])c1cccc(Cl)c1
inactive: [14] 90 % of control | [15] 95 % of control

COc1ccc(C2CCc3cc(OC)c(OC)cc3C2=O)cc1OC (stereo not given)
inactive: dose: 20.0 mg/kg/injection, schedule: Q01DX009 (ip), vehicle: saline with Tween-80 93 % of control | dose: 40.0 mg/kg/injection, schedule: Q01DX009 (ip), vehicle: saline with Tween-80 94 % of control | dose: 80.0 mg/kg/injection, schedule: Q01DX009 (ip), vehicle: saline with Tween-80 90 % of control | dose: 120.0 mg/kg/injection, schedule: Q01DX009 (ip), vehicle: saline with Tween-80 93 % of control | dose: 120.0 mg/kg/injection, schedule: Q01DX009 (ip), vehicle: saline 107 % of control | dose: 240.0 mg/kg/injection, schedule: Q01DX009 (ip), vehicle: saline with Tween-80 96 % of control | dose: 240.0 mg/kg/injection, schedule: Q01DX009 (ip), vehicle: saline 96 % of control | dose: 360.0 mg/kg/injection, schedule: Q01DX009 (ip), vehicle: saline 93 % of control | dose: 545.0 mg/kg/injection, schedule: Q01DX009 (ip), vehicle: saline 91 % of control

Clc1cc2n[nH]nc2c(SCc2ccccc2)n1
inactive: dose: 50.0 mg/kg/injection, schedule: Q01DX005 (ip), vehicle: saline with Tween-80 101 % of control | dose: 100.0 mg/kg/injection, schedule: Q01DX005 (ip), vehicle: saline with Tween-80 90 % of control | dose: 200.0 mg/kg/injection, schedule: Q01DX005 (ip), vehicle: saline with Tween-80 97 % of control

CCC(=O)c1ccc(Cc2ccc(C(=O)CC)cc2)cc1
inactive: dose: 125.0 mg/kg/injection, schedule: Q01DX001 (ip), vehicle: saline 104 % of control | dose: 250.0 mg/kg/injection, schedule: Q01DX001 (ip), vehicle: saline 101 % of control | dose: 500.0 mg/kg/injection, schedule: Q01DX001 (ip), vehicle: saline 93 % of control | dose: 1000.0 mg/kg/injection, schedule: Q01DX001 (ip), vehicle: saline 98 % of control

NC1=NCN(c2ccc(Oc3ccc(S(=O)(=O)F)cc3)cc2)C(N)=N1
inactive: [16] 93 % of control | dose: 200.0 mg/kg/injection, schedule: Q01DX001 (ip), vehicle: Klucel (hydroxypropylcellulose) (HPC) 101 % of control | dose: 400.0 mg/kg/injection, schedule: Q01DX001 (ip), vehicle: Klucel (hydroxypropylcellulose) (HPC) 104 % of control

O=C(O)c1c(O)c(-c2ccccc2)nc2ccccc12
inactive: dose: 25.0 mg/kg/injection, schedule: Q01DX001 (ip), vehicle: Klucel (hydroxypropylcellulose) (HPC) 90 % of control | dose: 50.0 mg/kg/injection, schedule: Q01DX001 (ip), vehicle: Klucel (hydroxypropylcellulose) (HPC) 102 % of control | dose: 50.0 mg/kg/injection, schedule: Q01DX009 (ip), vehicle: Klucel (hydroxypropylcellulose) (HPC) 101 % of control | [16] 86 % of control | [14] 100 % of control | [17] 98 % of control | [15] 103 % of control | [18] 100 % of control

CCCN(CCC)N=Nc1ccccc1-c1nc(N)c2ccccc2n1
inactive: [17] 106 % of control | [18] 98 % of control | dose: 400.0 mg/kg/injection, schedule: Q04DX003 (ip), vehicle: Klucel (hydroxypropylcellulose) (HPC) 101 % of control

CC(C)(C)NC1CCCC1Cl (stereo not given)
inactive: [1] 106 % of control | [2] 102 % of control
